Reference: the kinase profiling compilation of Christmann-Franck et al. (2016)

Legend:
Experiment in all cases: KINOMEscan competition binding
Conditions in all cases: compound 10.0 µM
ACVR1B (human) = ACVR1B (human) (UniProt P36896)
ALK (human) = ALK (human) (UniProt Q9UM73)
AURKA (human) = AURKA (human) (UniProt O14965)
BRSK1 (human) = BRSK1 (human) (UniProt Q8TDC3)
CAMK2B (human) = CAMK2B (human) (UniProt Q13554)
CAMK2G (human) = CAMK2G (human) (UniProt Q13555)
CAMKK1 (human) = CAMKK1 (human) (UniProt Q8N5S9)
CDC42BPB (human) = CDC42BPB (human) (UniProt Q9Y5S2)
CDC42BPG (human) = CDC42BPG (human) (UniProt Q6DT37)
CDK15 (human) = CDK15 (human) (UniProt Q96Q40)
CDK5 (human) = CDK5 (human) (UniProt Q00535)
CLK4 (human) = CLK4 (human) (UniProt Q9HAZ1)
CSF1R (human) = CSF1R (human) (UniProt P07333)
CSNK1A1L (human) = CSNK1A1L (human) (UniProt Q8N752)
EIF2AK2 (human) = EIF2AK2 (human) (UniProt P19525)
EPHA1 (human) = EPHA1 (human) (UniProt P21709)
EPHA4 (human) = EPHA4 (human) (UniProt P54764)
EPHB4 (human) = EPHB4 (human) (UniProt P54760)
FGFR3 (human) = FGFR3 (human) (UniProt P22607)
FLT3 (human) = FLT3 (human) (UniProt P36888)
[1] = biological target: JAK3 JH1 catalytic (human) (UniProt P52333)
KDR (human) = KDR (human) (UniProt P35968)
LCK (human) = LCK (human) (UniProt P06239)
MAP3K12 (human) = MAP3K12 (human) (UniProt Q12852)
MAP3K7 (human) = MAP3K7 (human) (UniProt O43318)
MAP4K2 (human) = MAP4K2 (human) (UniProt Q12851)
PAK6 (human) = PAK6 (human) (UniProt Q9NQU5)
PIK3CD (human) = PIK3CD (human) (UniProt O00329)
PLK4 (human) = PLK4 (human) (UniProt O00444)
PRKAA2 (human) = PRKAA2 (human) (UniProt P54646)
PRKACB (human) = PRKACB (human) (UniProt P22694)
RIPK2 (human) = RIPK2 (human) (UniProt O43353)
RIPK4 (human) = RIPK4 (human) (UniProt P57078)
RPS6KA1 KD2 (human) = RPS6KA1 KD2 (human) (UniProt Q15418)
SIK2 (human) = SIK2 (human) (UniProt Q9H0K1)
SRPK1 (human) = SRPK1 (human) (UniProt Q96SB4)
STK17A (human) = STK17A (human) (UniProt Q9UEE5)
[2] = biological target: TYK2 JH1 catalytic (human) (UniProt P29597)
[3] = biological target: TYK2 JH2 pseudokinase (human) (UniProt P29597)
ULK2 (human) = ULK2 (human) (UniProt Q8IYT8)

Chain of FGFR3 (human) (P22607 whole entry, looked up): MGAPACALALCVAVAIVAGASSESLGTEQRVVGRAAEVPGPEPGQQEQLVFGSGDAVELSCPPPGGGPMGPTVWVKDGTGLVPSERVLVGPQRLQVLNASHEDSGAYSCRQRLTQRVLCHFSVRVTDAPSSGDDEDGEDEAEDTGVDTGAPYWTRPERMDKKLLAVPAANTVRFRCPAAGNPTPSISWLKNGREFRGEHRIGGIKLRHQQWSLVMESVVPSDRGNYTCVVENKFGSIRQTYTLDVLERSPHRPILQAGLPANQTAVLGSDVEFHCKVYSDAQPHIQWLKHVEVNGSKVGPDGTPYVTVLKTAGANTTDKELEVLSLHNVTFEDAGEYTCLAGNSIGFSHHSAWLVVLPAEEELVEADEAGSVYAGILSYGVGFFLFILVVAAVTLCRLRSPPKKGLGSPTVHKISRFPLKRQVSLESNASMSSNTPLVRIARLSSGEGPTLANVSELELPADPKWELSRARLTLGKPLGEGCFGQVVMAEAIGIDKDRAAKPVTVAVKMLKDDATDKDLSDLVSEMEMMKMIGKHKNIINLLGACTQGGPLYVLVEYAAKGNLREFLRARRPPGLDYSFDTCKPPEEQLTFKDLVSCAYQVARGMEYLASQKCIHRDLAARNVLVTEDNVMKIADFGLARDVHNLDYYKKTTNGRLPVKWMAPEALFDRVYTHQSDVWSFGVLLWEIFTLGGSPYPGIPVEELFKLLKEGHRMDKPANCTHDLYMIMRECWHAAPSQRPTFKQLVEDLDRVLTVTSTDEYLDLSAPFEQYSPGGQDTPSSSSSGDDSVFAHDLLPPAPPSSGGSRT
Chain of STK17A (human) (Q9UEE5 whole entry, looked up): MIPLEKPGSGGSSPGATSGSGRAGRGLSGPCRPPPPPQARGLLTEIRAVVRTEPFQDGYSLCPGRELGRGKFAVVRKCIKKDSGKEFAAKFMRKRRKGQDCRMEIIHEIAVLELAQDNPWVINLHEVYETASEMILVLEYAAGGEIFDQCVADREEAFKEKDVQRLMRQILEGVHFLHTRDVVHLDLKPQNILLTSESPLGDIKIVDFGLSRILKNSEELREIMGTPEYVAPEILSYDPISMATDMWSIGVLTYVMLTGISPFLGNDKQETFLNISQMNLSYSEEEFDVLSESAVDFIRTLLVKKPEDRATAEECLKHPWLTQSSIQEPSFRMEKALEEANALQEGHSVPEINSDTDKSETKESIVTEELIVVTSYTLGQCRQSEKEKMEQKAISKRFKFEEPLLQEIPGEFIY
Chain of SIK2 (human) (Q9H0K1 whole entry, looked up): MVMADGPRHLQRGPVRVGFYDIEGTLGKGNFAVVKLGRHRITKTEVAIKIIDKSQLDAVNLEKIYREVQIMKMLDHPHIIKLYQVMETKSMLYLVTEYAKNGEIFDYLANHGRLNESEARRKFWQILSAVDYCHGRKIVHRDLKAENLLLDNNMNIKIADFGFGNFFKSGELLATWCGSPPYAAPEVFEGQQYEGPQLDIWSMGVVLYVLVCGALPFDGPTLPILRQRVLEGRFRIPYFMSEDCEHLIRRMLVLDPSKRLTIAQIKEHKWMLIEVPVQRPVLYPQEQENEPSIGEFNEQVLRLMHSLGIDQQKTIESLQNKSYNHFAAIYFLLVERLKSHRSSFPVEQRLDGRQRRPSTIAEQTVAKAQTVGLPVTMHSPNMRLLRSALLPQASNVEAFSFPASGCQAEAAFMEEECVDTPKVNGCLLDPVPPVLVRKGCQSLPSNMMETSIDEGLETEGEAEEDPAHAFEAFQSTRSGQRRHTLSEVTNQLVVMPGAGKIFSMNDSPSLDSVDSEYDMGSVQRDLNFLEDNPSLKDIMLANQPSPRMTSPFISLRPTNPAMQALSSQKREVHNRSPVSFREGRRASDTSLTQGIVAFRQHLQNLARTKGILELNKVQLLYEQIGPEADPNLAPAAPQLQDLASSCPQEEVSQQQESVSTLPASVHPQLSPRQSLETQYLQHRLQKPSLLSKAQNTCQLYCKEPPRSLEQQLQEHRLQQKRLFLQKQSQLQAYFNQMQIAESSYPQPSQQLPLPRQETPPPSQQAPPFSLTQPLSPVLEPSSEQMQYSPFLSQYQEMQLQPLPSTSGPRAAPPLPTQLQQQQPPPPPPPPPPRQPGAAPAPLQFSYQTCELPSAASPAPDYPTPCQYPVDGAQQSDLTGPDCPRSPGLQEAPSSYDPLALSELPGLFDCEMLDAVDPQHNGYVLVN
Chain of PIK3CD (human) (O00329 whole entry, looked up): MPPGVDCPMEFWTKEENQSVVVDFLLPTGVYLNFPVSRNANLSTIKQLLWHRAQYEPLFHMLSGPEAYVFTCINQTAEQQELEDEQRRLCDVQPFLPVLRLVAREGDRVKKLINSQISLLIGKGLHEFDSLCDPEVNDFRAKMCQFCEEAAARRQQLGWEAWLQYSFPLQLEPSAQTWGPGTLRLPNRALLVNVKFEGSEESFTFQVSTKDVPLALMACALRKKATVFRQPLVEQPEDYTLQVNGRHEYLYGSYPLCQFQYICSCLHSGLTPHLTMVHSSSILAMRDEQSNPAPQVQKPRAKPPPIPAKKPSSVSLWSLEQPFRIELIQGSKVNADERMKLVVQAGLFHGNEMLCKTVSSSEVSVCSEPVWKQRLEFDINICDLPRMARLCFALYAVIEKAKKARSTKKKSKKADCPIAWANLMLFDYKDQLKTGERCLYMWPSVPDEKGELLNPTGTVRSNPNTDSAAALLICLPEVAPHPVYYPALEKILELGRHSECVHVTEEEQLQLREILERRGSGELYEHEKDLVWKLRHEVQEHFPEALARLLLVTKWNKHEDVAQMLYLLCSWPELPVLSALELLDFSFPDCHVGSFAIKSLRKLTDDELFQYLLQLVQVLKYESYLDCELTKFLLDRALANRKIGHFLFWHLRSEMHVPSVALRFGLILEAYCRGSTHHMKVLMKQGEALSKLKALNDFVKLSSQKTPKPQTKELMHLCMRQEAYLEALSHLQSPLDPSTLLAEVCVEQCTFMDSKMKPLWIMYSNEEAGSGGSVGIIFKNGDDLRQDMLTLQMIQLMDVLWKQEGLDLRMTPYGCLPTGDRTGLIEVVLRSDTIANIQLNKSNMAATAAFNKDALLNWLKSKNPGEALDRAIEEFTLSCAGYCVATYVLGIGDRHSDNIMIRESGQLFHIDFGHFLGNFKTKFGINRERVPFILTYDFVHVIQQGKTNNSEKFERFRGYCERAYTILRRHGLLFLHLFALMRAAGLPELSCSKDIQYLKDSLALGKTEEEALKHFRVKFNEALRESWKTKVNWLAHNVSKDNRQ
Chain of RPS6KA1 KD2 (human) (Q15418 whole entry, looked up): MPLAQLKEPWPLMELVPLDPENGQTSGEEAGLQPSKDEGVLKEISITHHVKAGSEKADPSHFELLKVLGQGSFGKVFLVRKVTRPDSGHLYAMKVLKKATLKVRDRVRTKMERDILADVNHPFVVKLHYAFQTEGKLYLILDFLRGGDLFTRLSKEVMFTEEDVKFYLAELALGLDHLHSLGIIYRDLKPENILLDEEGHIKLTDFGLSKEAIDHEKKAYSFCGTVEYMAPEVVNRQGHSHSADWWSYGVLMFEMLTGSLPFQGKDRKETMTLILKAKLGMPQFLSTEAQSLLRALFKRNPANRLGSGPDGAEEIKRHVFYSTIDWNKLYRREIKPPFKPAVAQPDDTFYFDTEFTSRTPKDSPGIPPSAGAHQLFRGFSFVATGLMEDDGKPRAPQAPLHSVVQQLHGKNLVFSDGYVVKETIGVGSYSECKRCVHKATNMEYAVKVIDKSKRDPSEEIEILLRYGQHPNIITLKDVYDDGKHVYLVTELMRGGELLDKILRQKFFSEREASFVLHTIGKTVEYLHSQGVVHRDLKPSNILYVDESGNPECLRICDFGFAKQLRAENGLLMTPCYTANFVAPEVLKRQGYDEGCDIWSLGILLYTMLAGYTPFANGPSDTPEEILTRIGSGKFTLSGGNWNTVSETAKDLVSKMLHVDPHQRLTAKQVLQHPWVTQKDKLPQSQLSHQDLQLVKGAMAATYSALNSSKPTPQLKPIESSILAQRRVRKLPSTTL
Chain of CSF1R (human) (P07333 whole entry, looked up): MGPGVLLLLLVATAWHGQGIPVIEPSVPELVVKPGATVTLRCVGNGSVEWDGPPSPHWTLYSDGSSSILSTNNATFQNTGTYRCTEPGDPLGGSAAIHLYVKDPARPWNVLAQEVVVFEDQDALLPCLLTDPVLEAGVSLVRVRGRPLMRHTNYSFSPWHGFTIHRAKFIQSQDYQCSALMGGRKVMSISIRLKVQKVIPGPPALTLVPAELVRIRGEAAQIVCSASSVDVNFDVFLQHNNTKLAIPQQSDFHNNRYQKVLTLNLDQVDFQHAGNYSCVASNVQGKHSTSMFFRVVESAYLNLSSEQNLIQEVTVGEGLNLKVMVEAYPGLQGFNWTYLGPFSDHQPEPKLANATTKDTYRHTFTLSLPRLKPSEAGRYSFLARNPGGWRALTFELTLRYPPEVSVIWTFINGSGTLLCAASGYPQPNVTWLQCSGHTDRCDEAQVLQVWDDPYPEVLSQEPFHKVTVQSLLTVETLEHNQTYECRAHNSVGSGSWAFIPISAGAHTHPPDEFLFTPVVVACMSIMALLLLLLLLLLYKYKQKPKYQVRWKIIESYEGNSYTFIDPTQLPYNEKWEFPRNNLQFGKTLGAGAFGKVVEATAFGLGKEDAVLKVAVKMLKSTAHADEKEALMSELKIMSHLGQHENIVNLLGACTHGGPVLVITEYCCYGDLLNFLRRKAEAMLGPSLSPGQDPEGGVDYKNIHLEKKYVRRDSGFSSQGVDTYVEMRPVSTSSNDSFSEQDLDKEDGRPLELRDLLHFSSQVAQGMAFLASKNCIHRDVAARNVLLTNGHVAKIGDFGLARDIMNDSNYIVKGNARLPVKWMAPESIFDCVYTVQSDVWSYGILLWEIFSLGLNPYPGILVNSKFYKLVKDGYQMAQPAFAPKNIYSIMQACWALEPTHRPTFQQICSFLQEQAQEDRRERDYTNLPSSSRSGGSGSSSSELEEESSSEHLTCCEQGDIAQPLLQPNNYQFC

| SMILES | kinase still bound, per cent of control (ACVR1B (human)) [%] | kinase still bound, per cent of control (ALK (human)) [%] | kinase still bound, per cent of control (AURKA (human)) [%] | kinase still bound, per cent of control (BRSK1 (human)) [%] | kinase still bound, per cent of control (CAMK2B (human)) [%] | kinase still bound, per cent of control (CAMK2G (human)) [%] | kinase still bound, per cent of control (CAMKK1 (human)) [%] | kinase still bound, per cent of control (CDC42BPB (human)) [%] | kinase still bound, per cent of control (CDC42BPG (human)) [%] | kinase still bound, per cent of control (CDK15 (human)) [%] | kinase still bound, per cent of control (CDK5 (human)) [%] | kinase still bound, per cent of control (CLK4 (human)) [%] | kinase still bound, per cent of control (CSF1R (human)) [%] | kinase still bound, per cent of control (CSNK1A1L (human)) [%] | kinase still bound, per cent of control (EIF2AK2 (human)) [%] | kinase still bound, per cent of control (EPHA1 (human)) [%] | kinase still bound, per cent of control (EPHA4 (human)) [%] | kinase still bound, per cent of control (EPHB4 (human)) [%] | kinase still bound, per cent of control (FGFR3 (human)) [%] | kinase still bound, per cent of control (FLT3 (human)) [%] | other results |
| --- | --- | --- | --- | --- | --- | --- | --- | --- | --- | --- | --- | --- | --- | --- | --- | --- | --- | --- | --- | --- | --- |
| CCN1CCN(Cc2ccc(Nc3ncc4c(n3)N(C)c3ccccc3C(=O)N4C)cc2C(F)(F)F)CC1 | 100 | 64 | 0.4 | 41 | 58 | 81 | 79 | 99 | 92 | 76 | 84 | 100 | 0.5 | 74 | 95 | 61 | 100 | 93 | 43 | 100 | kinase still bound, per cent of control [1]: 9.8%; kinase still bound, per cent of control (KDR (human)): 100%; kinase still bound, per cent of control (LCK (human)): 5%; kinase still bound, per cent of control (MAP3K12 (human)): 49%; kinase still bound, per cent of control (MAP3K7 (human)): 17%; kinase still bound, per cent of control (MAP4K2 (human)): 17%; kinase still bound, per cent of control (PAK6 (human)): 79%; kinase still bound, per cent of control (PIK3CD (human)): 0%; kinase still bound, per cent of control (PLK4 (human)): 0.1%; kinase still bound, per cent of control (PRKAA2 (human)): 5%; kinase still bound, per cent of control (PRKACB (human)): 100%; kinase still bound, per cent of control (RIPK2 (human)): 6.4%; kinase still bound, per cent of control (RIPK4 (human)): 12%; kinase still bound, per cent of control (RPS6KA1 KD2 (human)): 23%; kinase still bound, per cent of control (SIK2 (human)): 24%; kinase still bound, per cent of control (SRPK1 (human)): 82%; kinase still bound, per cent of control (STK17A (human)): 100%; kinase still bound, per cent of control [2]: 2%; kinase still bound, per cent of control [3]: 13%; kinase still bound, per cent of control (ULK2 (human)): 0% |
| Cn1c(=O)n(-c2ccc(C(C)(C)C#N)cc2)c2c3cc(-c4cnc5ccccc5c4)ccc3ncc21 | 100 | 100 | 100 | 100 | 100 | 100 | 100 | 100 | 100 | 100 | 100 | 22 | 100 | 100 | 100 | 100 | 100 | 100 | 100 | 100 | kinase still bound, per cent of control [1]: 100%; kinase still bound, per cent of control (KDR (human)): 100%; kinase still bound, per cent of control (LCK (human)): 100%; kinase still bound, per cent of control (MAP3K12 (human)): 100%; kinase still bound, per cent of control (MAP3K7 (human)): 100%; kinase still bound, per cent of control (MAP4K2 (human)): 11%; kinase still bound, per cent of control (PAK6 (human)): 100%; kinase still bound, per cent of control (PIK3CD (human)): 7.2%; kinase still bound, per cent of control (PLK4 (human)): 100%; kinase still bound, per cent of control (PRKAA2 (human)): 100%; kinase still bound, per cent of control (PRKACB (human)): 100%; kinase still bound, per cent of control (RIPK2 (human)): 100%; kinase still bound, per cent of control (RIPK4 (human)): 100%; kinase still bound, per cent of control (RPS6KA1 KD2 (human)): 100%; kinase still bound, per cent of control (SIK2 (human)): 100%; kinase still bound, per cent of control (SRPK1 (human)): 100%; kinase still bound, per cent of control (STK17A (human)): 100%; kinase still bound, per cent of control [2]: 100%; kinase still bound, per cent of control [3]: 100%; kinase still bound, per cent of control (ULK2 (human)): 100% |
| C=CC(=O)Nc1cccc(Oc2nc(Nc3ccc(N4CCN(C)CC4)cc3OC)ncc2Cl)c1 | 100 | 0.7 | 28 | 100 | 100 | 100 | 18 | 100 | 100 | 100 | 100 | 12 | 14 | 100 | 100 | 100 | 100 | 100 | 100 | 4.6 | kinase still bound, per cent of control [1]: 0.4%; kinase still bound, per cent of control (KDR (human)): 100%; kinase still bound, per cent of control (LCK (human)): 100%; kinase still bound, per cent of control (MAP3K12 (human)): 100%; kinase still bound, per cent of control (MAP3K7 (human)): 100%; kinase still bound, per cent of control (MAP4K2 (human)): 100%; kinase still bound, per cent of control (PAK6 (human)): 100%; kinase still bound, per cent of control (PIK3CD (human)): 100%; kinase still bound, per cent of control (PLK4 (human)): 0.2%; kinase still bound, per cent of control (PRKAA2 (human)): 100%; kinase still bound, per cent of control (PRKACB (human)): 100%; kinase still bound, per cent of control (RIPK2 (human)): 100%; kinase still bound, per cent of control (RIPK4 (human)): 100%; kinase still bound, per cent of control (RPS6KA1 KD2 (human)): 100%; kinase still bound, per cent of control (SIK2 (human)): 20%; kinase still bound, per cent of control (SRPK1 (human)): 21%; kinase still bound, per cent of control (STK17A (human)): 1.6%; kinase still bound, per cent of control [2]: 100%; kinase still bound, per cent of control [3]: 100%; kinase still bound, per cent of control (ULK2 (human)): 2% |
